Experimental data reported in patent US20220227707A1, “COMPOUNDS AND COMPOSITIONS FOR TREATING CONDITIONS ASSOCIATED WITH NLRP ACTIVITY” (Novartis AG, priority 2019, published 2022).
pIC50: −log10 of the molar value.

Tested on: IL-1β production in PMA-differentiated THP-1 cells
Assay: IL-1β production in PMA-differentiated THP-1 cells stimulated with gramicidin (hTHP-1 assay)
Type: cell-based, human
Protocol: Procedure 1: IL-1β Production in PMA-Differentiated THP-1 Cells Stimulated with Gramicidin
THP-1 cells were purchased from the American Type Culture Collection and sub-cultured according to instructions from the supplier. Cells were cultured in complete RPMI 1640 (containing 10% heat inactivated FBS, penicillin (100 units/ml) and streptomycin (100 μg/ml)), and maintained in log phase prior to experimental setup. Prior to the experiment, compounds were dissolved in dimethyl sulfoxide (DMSO) to generate a 30 mM stock. The compound stock was first pre-diluted in DMSO to 3, 0.34, 0.042 and 0.0083 mM intermediate concentrations and subsequently spotted using Echo550 liquid handler into an empty 384-well assay plate to achieve desired final concentration (e.g. 100, 33, 11, 3.7, 1.2, 0.41, 0.14, 0.046, 0.015, 0.0051, 0.0017 μM). DMSO was backfilled in the plate to achieve a final DMSO assay concentration of 0.37%. The plate was then sealed and stored at room temperature until required.
THP-1 cells were treated with PMA (Phorbol 12-myristate 13-acetate) (20 ng/ml) for 16-18 hours. On the day of the experiment the media was removed and adherent cells were detached with trypsin for 5 minutes. Cells were then harvested, washed with complete RPMI 1640, spun down, and resuspended in RPMI 1640 (containing 2% heat inactivated FBS, penicillin (100 units/ml) and streptomycin (100 μg/ml). The cells were plated in the 384-well assay plate containing the spotted compounds at a density of 50,000 cells/well (final assay volume 50 μl). Cells were incubated with compounds for 1 hour and then stimulated with gramicidin (5 μM) (Enzo) for 2 hours. Plates were then centrifuged at 340 g for 5 min. Cell free supernatant ([…]) was collected using a 96-channel PlateMaster (Gilson) and the production of IL-1β was evaluated by HTRF (cisbio). The plates were incubated for 18 h at 4° C. and read using the preset HTRF program (donor emission at 620 nm, acceptor emission at 668 nm) of the SpectraMax i3x spectrophotometer (Molecular Devices, software SoftMax 6). A vehicle only control and a dose titration of CRID3 (100-0.0017 μM) were run concurrently with each experiment.
Procedure 2: […] Production in PMA-Differentiated THP-1 Cells Stimulated with Gramicidin
THP-1 cells were purchased from the American Type Culture Collection and sub-cultured according to instructions from the supplier. Prior to experiments, cells were cultured in complete RPMI 1640 (containing 10% heat inactivated FBS, penicillin (100 units/ml) and streptomycin (100 μg/ml)), and maintained in log phase prior to experimental setup. Prior to the experiment THP-1 were treated with PMA (Phorbol 12-myristate 13-acetate) (20 ng/ml) for 16-18 hours. Compounds were dissolved in dimethyl sulfoxide (DMSO) to generate a 30 mM stock. On the day of the experiment the media was removed and adherent cells were detached with trypsin for 5 minutes. Cells were then harvested, washed with complete RPMI 1640, spun down, resuspended in RPMI 1640 (containing 2% heat inactivated FBS, penicillin (100 units/ml) and streptomycin (100 μg/ml). The cells were plated in a 384-well plate at a density of 50,000 cells/well (final assay volume 50 μl). Compounds were first dissolved in assay medium to obtain a 5× top concentration of 500 μM. 10 step dilutions (1:3) were then undertaken in assay medium containing 1.67% DMSO. 5× compound solutions were added to the culture medium to achieve desired final concentration (e.g. 100, 33, 11, 3.7, 1.2, 0.41, 0.14, 0.046, 0.015, 0.0051, 0.0017 μM). Final DMSO concentration was at 0.37%. Cells were incubated with compounds for 1 hour and then stimulated with gramicidin (5 μM) (Enzo) for 2 hours. Plates were then centrifuged at 340 g for 5 min. Cell free supernatant (40 μL) was collected using a 96-channel PlateMaster (Gilson) and the production of IL-1β was evaluated by HTRF (cisbio). A vehicle only control and a dose titration of CRID3 (100-0.0017 μM) were run concurrently with each experiment. […]

[1] = Homo sapiens, THP-1, Average IC50, hTHP-1 assay containing 2% fetal bovine serum, Table 10, numeric values
[2] = Homo sapiens, THP-1, Average IC50, hTHP-1 assay containing 2% fetal bovine serum, Table 10, class symbols
[3] = Average IC50, hTHP-1 assay containing 2% fetal bovine serum, Table 10, numeric values
[4] = Average IC50, hTHP-1 assay containing 2% fetal bovine serum, Table 10, class symbols

Row | Structure (SMILES) | pIC50 [1] | pIC50 [2] | also measured
1 | CN(C)S(C)(=O)=NC(=O)Nc1c2c(cc3c1CCC3)CCC2 (centres unmarked) [Compound 107] | < 4.52 |  | 
2 | CN(C)Cc1cccc(CS(N)(=O)=NC(=O)Nc2c3c(cc4c2CCC4)CCC3)c1 (centres unmarked) [Compound 164, 1-(3-((dimethylamino)methyl)pheny1)-N′-((1,2,3,5,6,7-hexahydro-s-indacen-4-yl)carbamoyl) methane-sulfonimidamide] |  | 4.52 to 5.30 | 
3 | CN(C)CC1(S(N)(=O)=NC(=O)Nc2c3c(cc4c2CCC4)CCC3)CC1 (centres unmarked) [Compound 158] | < 4.52 |  | 
4 | CC(C)c1cc(F)cc(C(C)C)c1CC(=O)N=S(N)(=O)C1CCCC1 (centres unmarked) [Compound 304] | < 4.52 |  | 
5 | CN(C)CCCS(N)(=O)=NC(=O)Nc1c2c(cc3c1CCC3)CCC2 (centres unmarked) [Compound 141] |  | 4.52 to 5.30 | 
6 | NS(=O)(=NC(=O)Nc1c2c(cc3c1CCC3)CCC2)C1CCCC1 (centres unmarked) [Compound 152] |  |  | pIC50 [3]: < 4.52
7 | CS(N)(=O)=NC(=O)Nc1c2c(cc3c1CCC3)CCC2 (single isomer, unassigned) [Compound 117] |  | 4.52 to 5.30 | 
8 | CN1CCC(CS(N)(=O)=NC(=O)Nc2c3c(cc4c2CCC4)CCC3)C1 (centres unmarked) [Compound 112, N′-((1,2,3,5,6,7-hexahydro-s-indacen-4-yl)carbamoy1)-1-(1-methylpyrrolidin-3-yl) methane-sulfonimidamide] |  | 5.30 to 6.00 | 
9 | CC1(S(N)(=O)=NC(=O)Nc2c3c(cc4c2CCC4)CCC3)CC1 (centres unmarked) [Compound 162] |  | 6.00 to 6.70 | 
10 | CC(CN(C)C)CS(N)(=O)=NC(=O)Nc1c2c(cc3c1CCC3)CCC2 (single isomer, unassigned) [Compound 124, 3-(dimethylamino)-N′-((1,2,3,5,6,7-hexahydro-s-indacen-4-yl)carbamoyl)-2-methylpropane-1-sulfonimidamide] | < 4.52 |  | 
11 | CC(C)c1cc(F)cc(C(C)C)c1CC(=O)NS(=O)(=O)CCCc1ccccc1 [Compound 509] | < 4.52 |  | 
12 | CC(CN(C)C)CS(N)(=O)=NC(=O)Nc1c2c(cc3c1CCC3)CCC2 (centres unmarked) [Compound 125, 3-(dimethylamino)-N′-((1,2,3,5,6,7-hexahydro-s-indacen-4-yl)carbamoyl)-2-methylpropane-1-sulfonimidamide] |  |  | pIC50 [4]: 5.30 to 6.00
13 | CN(C)CCCS(N)(=O)=NC(=O)Nc1c2c(cc3c1CCC3)CCC2 (centres unmarked) [Compound 144] |  |  | pIC50 [4]: 4.52 to 5.30
14 | CNS(C)(=O)=NC(=O)Nc1c2c(cc3c1CCC3)CCC2 (centres unmarked) [Compound 103, N′-((1,2,3,5,6,7-hexahydro-s-indacen-4-yl)carbamoy1)-N-methylmethane-sulfonimidamide] | < 4.52 |  | 
15 | CC(C)c1cc(F)cc(C(C)C)c1CC(=O)NS(=O)(=O)Cc1cccc(C(=O)O)c1 [Compound 510] | < 4.00 |  | 
16 | CC(C)c1cc(F)cc(C(C)C)c1CC(=O)N=S(N)(=O)C1CC1 (centres unmarked) [Compound 308] | < 4.52 |  | 
17 | NS(=O)(=NC(=O)Nc1c2c(cc3c1CCC3)CCC2)C1CCCC1 (centres unmarked) [Compound 153] |  | 4.52 to 5.30 | 
18 | COC(=O)CCS(=O)(=O)NC(=O)Cc1c2c(cc3c1CCC3)CCC2 [Compound 504] |  | 5.30 to 6.00 | 
19 | NS(=O)(=NC(=O)Nc1c2c(cc3c1CCC3)CCC2)C1Cc2ccccc2C1 (centres unmarked) [Compound 139, N′-((1,2,3,5,6,7-hexahydro-s-indacen-4-yl)carbamoy1)-2,3-dihydro-1H-indene-2-sulfonimidamide] |  | 4.52 to 5.30 | 
20 | CC(CN(C)C)CS(N)(=O)=NC(=O)Nc1c2c(cc3c1CCC3)CCC2 (single isomer, unassigned) [Compound 122, 3-(dimethylamino)-N′-((1,2,3,5,6,7-hexahydro-s-indacen-4-yl)carbamoyl)-2-methylpropane-1-sulfonimidamide] |  | 5.30 to 6.00 | 
21 | CC(C)c1cc(F)cc(C(C)C)c1CC(=O)NS(=O)(=O)Cc1ccc(CN)cc1 [Compound 507] | < 4.00 |  | 
22 | CC(C)(O)c1ccc(CS(N)(=O)=NC(=O)Nc2c3c(cc4c2CCC4)CCC3)cc1 (single isomer, unassigned) [Compound 165b] |  |  | pIC50 [4]: 6.70 to 7.40
23 | CC(C)c1cc(F)cc(C(C)C)c1CC(=O)N=S(N)(=O)CCCN(C)C (centres unmarked) [Compound 301] | < 4.52 |  | 
24 | CN(C)CC1(S(N)(=O)=NC(=O)Nc2c3c(cc4c2CCC4)CCC3)CC1 (centres unmarked) [Compound 159] |  |  | pIC50 [3]: < 4.52
25 | CN1CCC(CS(N)(=O)=NC(=O)Nc2c3c(cc4c2CCC4)CCC3)C1 (single isomer, unassigned) [Compound 114] |  | 4.52 to 5.30 | 
26 | CC(C)c1cc(F)cc(C(C)C)c1CC(=O)N=S(N)(=O)C1CC1 (centres unmarked) [Compound 309] |  |  | pIC50 [3]: < 4.52
27 | CC(CN(C)C)CS(N)(=O)=NC(=O)Nc1c2c(cc3c1CCC3)CCC2 (centres unmarked) [Compound 123, 3-(dimethylamino)-N′-((1,2,3,5,6,7-hexahydro-s-indacen-4-yl)carbamoyl)-2-methylpropane-1-sulfonimidamide] |  |  | pIC50 [4]: 4.52 to 5.30
28 | COC(=O)CCS(=O)(=O)NC(=O)Cc1c(C(C)C)cc(F)cc1C(C)C [Compound 520, methyl 3-(N-(2-(4-fluoro-2,6-diisopropylphenyl)acetyl)sulfamoyl) propanoate] |  | 5.30 to 6.00 | 
29 | CC(C)c1cc(F)cc(C(C)C)c1CC(=O)NS(=O)(=O)CCc1ccccc1 [Compound 516] | < 4.52 |  | 
